Columns and labels:
[1] = test system: LNCaP cells; assay: PSA gene transcription, real-time PCR-based nuclear run-on; conditions: 20 μM, 16 hr
[2] = test system: LAPC-4 cells (wildtype AR); assay: Cellular PSA and AR protein, western blotting; type: cell-based

SMILES: CC(C)(C)c1ccc(OCCSc2nc(=O)cc(N)[nH]2)cc1 [DL3, 6-amino-2-(2-4-tert-butyl-phenoxy)-ethylsulfanyl-1H-pyrimidin-4-one]
- DHT-induced PSA mRNA transcription activity of nuclear extracts ([1]; 1 nM DHT): significantly reduced
- basal PSA mRNA transcription activity of nuclear extracts [1]: significantly reduced
- AR protein expression ([2]; 20 μM, 24 hr): similarly reduced
- DHT-induced PSA protein expression ([2]; SMEM, 1 nM DHT, 20 μM DL3, 24 hr): inhibitory effects

Source: patent publication US7829575B2, “Methods for treating androgen receptor related disorders” (University of Cincinnati, priority 2006, dated 2010)
